Here are results for 20 molecules from ChEMBL document CHEMBL6127019, “Exploitation of the nitro- and/or 4-Trifluoromethyl-decorated phenyl fragment to develop small inhibitors of Alpha-Syn fibril aggregation” (Bioorg Med Chem Lett, 2024).

Structures are written as SMILES. The source made the active and inactive calls. The calls are words filed in the database; no cut-off is given here.

One test addresses Alpha-synuclein (Homo sapiens) (UniProt P37840). Briefly: Inhibition of alpha alpha-synuclein (unknown origin) fibril aggregation assessed as reduction in TH-T fluorescent signal at 100 uM measured after 5 to 40 hrs by ThT fluorescence assay relative to control. The note with it: time 5-40 hrs.
For orientation: inhibition means the percentage by which the read-out fell short of the control. As to `O=[N+]([O-])c1cc(C(F)(F)F)cc([N+](=O)[O-])c1F`, the inhibition is 57%.
Same read-out and setting: with `O=[N+]([O-])c1cc(C(F)(F)F)cc([N+](=O)[O-])c1Nc1cccc(O)c1` the figure was 68%.

For a further test the target is unchanged. Briefly: Inhibition of alpha alpha-synuclein (unknown origin) fibril aggregation assessed as reduction in TH-T fluorescent signal at 100 uM measured after 5 to 40 hrs by ThT fluorescence assay. The note with it: time 5-40 hrs.
For `O=[N+]([O-])c1cc(C(F)(F)F)cc([N+](=O)[O-])c1N1CCN(c2ncnc3ccccc23)CC1`, the inhibition entry is “inactive”.
On the same count and under the same terms, the value for `O=[N+]([O-])c1cc(C(F)(F)F)cc([N+](=O)[O-])c1NCCCO` was “inactive”.
The same measure, in the same setting: the value for `Cn1nnnc1SCc1ccccc1[N+](=O)[O-]` was “inactive”.
The same measure, in the same setting: with `O=[N+]([O-])c1cc(C(F)(F)F)cc([N+](=O)[O-])c1Nc1ccc(F)cc1` the entry was “inactive”; with `O=[N+]([O-])c1cc(C(F)(F)F)cc([N+](=O)[O-])c1N1CCN(CCO)CC1`, “inactive”; with `Cc1cc(C)c(Nc2c([N+](=O)[O-])cc(C(F)(F)F)cc2[N+](=O)[O-])c(C)c1`, “inactive”.
Consider `O=[N+]([O-])c1cc([N+](=O)[O-])c(Nc2ccccc2)c(C(F)(F)F)c1`, for which the inhibition entry was “inactive”.
The same measure, in the same setting: with `COc1cccc(Nc2c([N+](=O)[O-])cc(C(F)(F)F)cc2[N+](=O)[O-])c1` the entry was “inactive”; with `O=C(COc1ccccc1)Nc1c([N+](=O)[O-])cc(C(F)(F)F)cc1[N+](=O)[O-]`, “inactive”.
On the same count and under the same terms, the value for `N#Cc1c(C(F)(F)F)c([N+](=O)[O-])c(-c2cccc([N+](=O)[O-])c2)[nH]c1=O` was “Active”; that for `O=[N+]([O-])c1cc(C(F)(F)F)cc([N+](=O)[O-])c1Sc1c(Cl)c(Cl)nc(Cl)c1Cl` was “inactive”; that for `Cn1cnnc1SCc1ccc(C(F)(F)F)cc1` was “inactive”.
On the same count and under the same terms, the value for `O=[N+]([O-])c1cc(C(F)(F)F)cc([N+](=O)[O-])c1NC1=NN(c2ccccc2)CC1` was “inactive”; that for `Cc1cccc(N2CCC(Nc3c([N+](=O)[O-])cc(C(F)(F)F)cc3[N+](=O)[O-])=N2)c1` was “inactive”.
For `Cn1nnnc1SCc1ccc(C(F)(F)F)cc1`, the inhibition entry is “inactive”.
Still for that read-out and setting: the value for `Cn1nnnc1Sc1c([N+](=O)[O-])cc(C(F)(F)F)cc1[N+](=O)[O-]` was “Active”; that for `Cc1cc(C)nc(Sc2c([N+](=O)[O-])cc(C(F)(F)F)cc2[N+](=O)[O-])n1` was “inactive”.
Same read-out and setting: the value for `O=C(O)CSCc1ccc(C(F)(F)F)cc1` was “inactive”.
